The values below are quoted from earlier work in patent publication US7709647B2, “Tetrahydroquinoline cannabinoid receptor modulators” (Bristol-Myers Squibb Company, priority 2005, dated 2010).

For series [1] the following is noted: chronic administration for two weeks.
The test system of a further series is human subjects. Conditions: 16 week trial period, published Phase IIb data.

`Cc1c(C(=O)NN2CCCCC2)nn(-c2ccc(Cl)cc2Cl)c1-c1ccc(I)cc1` [AM-251]: the body weight entry in series [1] is recorded as “substantial body weight reduction”. `Cc1c(C(=O)NN2CCCCC2)nn(-c2ccc(Cl)cc2Cl)c1-c1ccc(Cl)cc1` [SR-141716]: the body weight result with human subjects is reported as “dose-dependently reduced body weight”.
